Measurements published in article PMC9839475 (Journal of acquired immune deficiency syndromes (1999), 2023).
Read-outs that look alike come from different tables or passages of the source. Values belong to the compound of their own block, whether it stands above or below them.

How the values were obtained:
[1] = Cohort 2 week 1 intensive PK, DOR FDC once daily; format: in vivo, adolescents with HIV-1; details: for time at which Cmax occurred: Cohort 2, week 1, oral DOR/3TC/TDF, intensive PK
[2] = Cohort 1 safety through week 2; format: in vivo, adolescents with HIV-1
[3] = Cohort 2 sparse PK weeks 4-24, DOR FDC once daily; format: in vivo, adolescents with HIV-1
[4] = tested on: HIV-1; details: cited from earlier work
[5] = Cohort 1 intensive PK after a single 100 mg doravirine tablet; design: species or system adolescents with HIV-1; details: in vivo, po
[6] = adults taking 200mg daily; upper PK target of Cohort 1; cited from earlier work
[7] = tested on: CYP3A; details: cited from earlier work
[8] = in vivo
[9] = design: species or system adolescents with HIV-1; details: in vivo

Compound: Cn1c(Cn2ccc(C(F)(F)F)c(Oc3cc(Cl)cc(C#N)c3)c2=O)n[nH]c1=O [Doravirine]
Cl/F, geometric mean (geometric CV%) ([1]; Cohort 2, week 1, 100 mg daily as DOR FDC, n=10): 10.3 (47) L/h | C24,ss observed, geometric mean (geometric CV%) ([1]; Cohort 2, week 1, 100 mg daily as DOR FDC, n=10, 8/10 switched from efavirenz): 282 (74) nM | Tmax ([1]; human, plasma, oral): ~2 h | Cmax ([1]; human, plasma, po, 100 mg): 2130 nM | Tmax ([1]; human, plasma, po, 100 mg): 1.95 h | participants who died due to adverse event ([2]; Cohort 1, N=9, 100mg single dose, through week 2): 0 (0) n (%) | Grade 3 or 4 adverse events ([2]; human, in vivo, 2 weeks): no Grade 3 or 4 adverse events | participants with at least one Grade 1 or Grade 2 adverse event ([2]; human, in vivo, 2 weeks): 44.4% | tolerability ([2]; in vivo): well tolerated | geometric mean steady state doravirine concentrations ([3]; Cohort 2, all participants, Week 4 through Week 24): > 560 nM | DOR plasma concentration, geometric mean ([3]; Cohort 2, week 4, predose, N=45, DOR/3TC/TDF once daily): 747 nM | DOR plasma concentration, geometric mean ([3]; Cohort 2, week 8, random time, N=44, DOR/3TC/TDF once daily): 1320 nM | DOR plasma concentration, geometric mean ([3]; Cohort 2, week 12, random time, N=44, DOR/3TC/TDF once daily): 2020 nM | DOR plasma concentration, geometric mean ([3]; Cohort 2, week 24, 0.5–2 hours post dose, N=43, DOR/3TC/TDF once daily): 1870 nM | DOR plasma concentration, geometric mean ([3]; Cohort 2, week 24, predose, N=43, DOR/3TC/TDF once daily): 1090 nM | lipid levels compared to darunavir/ritonavir [4]: significantly improved lipid levels | discontinuations due to adverse events ([4]; week 48, doravirine plus 2 NRTIs, adults naïve to antiretroviral therapy): < 1% | virologic response versus darunavir/ritonavir ([4]; week 48, plus 2 NRTIs): not inferior | AUC(0-inf) ([5]; human): 34.8 µM·h | Tmax, median (range) ([5]; human): 3.78 (1.00–7.75) h | Vd/F ([5]; human): 115 L | half-life ([5]; human): 11.8 h | Tmax ([5]; human, Tmax, median (range)): ~4 h | Cl/F, geometric mean (geometric CV%) [5]: 6.75 (43) L/h | geometric AUC0–24hr at steady-state [6]: 64 µM·h

Compound: O=C1Nc2ccc(Cl)cc2[C@@](C#CC2CC2)(C(F)(F)F)O1 [efavirenz]
CYP3A induction [7]: moderate CYP3A inducer

Compound: doravirine/lamivudine/tenofovir disoproxil fumarate [DOR FDC]
grade 3 diarrhea and gastroenteritis [8]: one participant | grade 3 increased ALT [8]: one participant | participants meeting safety endpoint eGFR <60 ml/min/1.73m^2 [8]: No participant | participants who experienced at least one adverse event [8]: 45 participants | participants with Grade 1 dizziness assessed as related to the study drug [8]: 2.2% | participants with concomitant grade 3 increased creatinine [8]: 2 | participants with grade 3 decreased eGFR [8]: Three participants | participants with no adverse events [8]: 0 (0) n (%) | participants with one or more Grade 3 or greater adverse events [8]: 9 (20.0) n (%) | participants with one or more Grade 3 or greater drug-related adverse events [8]: 0 (0) n (%) | participants with one or more adverse events [8]: 45 (100.0) n (%) | participants with one or more drug-related adverse events [8]: 1 (2.2) n (%) | participants with one or more grade 3 adverse events [8]: 20% | participants with one or more serious adverse events [8]: 1 (2.2) n (%) | participants with one or more serious drug-related adverse events [8]: 0 (0) n (%) | tolerability [8]: well tolerated | Alanine Aminotransferase, mean change [95% CI] [9]: 1.2 [−7.3, 9.6] IU/L | Alkaline Phosphatase, mean change [95% CI] [9]: −20.7 [−35.1, −6.3] IU/L | Aspartate Aminotransferase, mean change [95% CI] [9]: 0.8 [−5.1, 6.7] IU/L | Bilirubin, mean change [95% CI] [9]: −0.0 [−0.2, 0.1] mg/dL | Creatinine, mean change [95% CI] [9]: 0.0 [0.0, 0.1] mg/dL | HDL Cholesterol, mean change [95% CI] [9]: −11.3 [−15.9, −6.6] mg/dL | LDL Cholesterol, mean change [95% CI] [9]: −12.5 [−20.7, −4.2] mg/dL | eGFR from Creatinine Adjusted for BSA, mean change [95% CI] [9]: −6.5 [−15.2, 2.2] mL/min/1.73m^2

Continued, values first:

time at which Cmax occurred [1]: ~2 h
Compound: Nc1ccn([C@@H]2CS[C@H](CO)O2)c(=O)n1 [lamivudine]

time at which Cmax occurred [1]: approximately 1 hour
Compound: C[C@H](Cn1cnc2c(N)ncnc21)OCP(=O)(O)O [tenofovir]
